Data set [1] concerns Human normal skeletal muscle cells. The data set is described as follows: Effect of Test compound 3 on cytotoxicity of HMG-CoA reductase inhibitor (1), drugs added at the same time. It is filed as cell-based. The note with it: 3 days. The text has this: Effect of Test Compound 3 on Cytotoxicity of HMG-CoA Reductase Inhibitor (1)
The test system is the same in data set [2]. The data set is described as follows: Effect of Test compound 3 on cytotoxicity of HMG-CoA reductase inhibitor (2), pretreatment 1 day. In kind it is cell-based. As for the experimental part: Effect of Test Compound 3 on Cytotoxicity of HMG-CoA Reductase Inhibitor (2)
The drug in Treatment 1 was added and after 1 day, the medium was completely removed.

Data set [3] shares this test system. The note with it: for The number of the live cells (% of Group 1): 3 days.
For data set [4], the system named is geranylgeraniol (GGOH) content in soleus muscle. Put plainly: Increasing effect on geranylgeraniol (GGOH) content in soleus muscle. It is filed as in vivo. Conditions: male SD rat, Mean ± SE (N = 4). As for the experimental part:
Increasing Effect on Geranylgeraniol (GGOH) Content in Soleus Muscle
To 6 week-old male SD rat (4 per group) was orally administered forcedly by means of a stomach sonde a vehicle or Test compounds 1 or 2 at a dose of 10 mL/kg once a day for 14 days so as to be in an amount of 40 or 200 mg/kg. In the next morning of the 14th administration, the rat was killed under ether anesthesia. Immediately, the soleus muscle was collected and frozen on a dry ice, and then kept at −80° C. Later, to the muscle homogenate was added phosphatase for dephosphorylation, and then the concentration of geranylgeraniol (sum total of geranylgeranyl pyrophosphate and geranylgeraniol) in the muscle was determined with LC/MS/MS (Table 1).

The target in another data set is T1, squalene synthase (Homo sapiens, UniProt P37268).
T1 sequence (P37268 1-417): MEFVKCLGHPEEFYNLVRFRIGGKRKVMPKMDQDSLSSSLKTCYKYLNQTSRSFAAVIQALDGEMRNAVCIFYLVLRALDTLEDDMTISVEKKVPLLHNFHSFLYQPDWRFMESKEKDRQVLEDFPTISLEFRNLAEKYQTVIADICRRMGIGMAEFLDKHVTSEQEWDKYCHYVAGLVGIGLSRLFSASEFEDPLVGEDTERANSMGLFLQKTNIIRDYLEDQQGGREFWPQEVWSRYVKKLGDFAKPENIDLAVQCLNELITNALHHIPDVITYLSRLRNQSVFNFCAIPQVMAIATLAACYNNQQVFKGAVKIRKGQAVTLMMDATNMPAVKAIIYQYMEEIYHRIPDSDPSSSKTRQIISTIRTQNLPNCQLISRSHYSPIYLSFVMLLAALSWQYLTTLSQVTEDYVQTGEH
The note with it: described in Test 1 of JP-A No. 9-136880; cited from earlier work.

Where [5] appears, read: single drug 10 μM, other treatment vehicle, Mean ± SE (N = 3).
[6] abbreviates: 40 mg/kg oral once a day for 14 days.
Setting [7] is: 200 mg/kg oral once a day for 14 days.

Read-outs that look alike come from different tables or passages of the source.

Take `CC(C)c1c(C(=O)Nc2ccccc2)c(-c2ccccc2)c(-c2ccc(F)cc2)n1CC[C@@H](O)C[C@@H](O)CC(=O)O` [Atorvastatin, atorvastatin, reference compound]: the “The number of the live cells (% of Group 1)” value (shortened to “The number … (% of Group 1)”) in data set [1] (Atorvastatin 100 μM alone (Treatment 1 vehicle)) was 34 ± 0.6 % of Group 1; in data set [2] (vehicle 1 day, then Atorvastatin 10 μM 3 days) it was 57 ± 1.1 % of Group 1; in data set [2] (vehicle 1 day, then Atorvastatin 100 μM 3 days), 35 ± 1.9 % of Group 1; in data set [3] (setting [5]) it was 52.0 ± 0.9 % of Group 1.

In the case of `CC(C)=CCC/C(C)=C/CC/C(C)=C/CC/C(C)=C/COP(=O)(O)OP(=O)(O)O` [GGPP, geranylgeranyl pyrophosphate], the “The number … (% of Group 1)” value is 67.8 ± 1.3$ % of Group 1 in data set [3] (GGPP 10 μM added together with Atorvastatin 10 μM), 72.3 ± 1.6 % of Group 1 in data set [3] (GGPP 10 μM added together with Simvastatin 10 μM) and 93.5 ± 0.8 % of Group 1 in data set [3] (setting [5]). In data set [3] (summary of Table 2), the “activity reducing cytotoxicity in skeletal muscle cells (in words)” value is reported as “had an activity reducing cytotoxicity in skeletal muscle cells”.

As for `CCC(C)(C)C(=O)O[C@H]1C[C@@H](C)C=C2C=C[C@H](C)[C@H](CC[C@@H]3C[C@@H](O)CC(=O)O3)[C@H]21` [Simvastatin, simvastatin], the “The number … (% of Group 1)” value in data set [3] (setting [5]) was 46.2 ± 1.5 % of Group 1.

As to `COc1cccc([C@H]2O[C@H](CC(=O)N3CCC(CC(=O)O)CC3)C(=O)N(CC(C)(C)COC(C)=O)c3ccc(Cl)cc32)c1OC` [Test compound 1, N-[[(3R,5S)-1-(3-acetoxy-2,2-dimethylpropyl)-7-chloro-5-(2,3-dimethoxyphenyl)-2-oxo-1,2,3,5-tetrahydro-4,1-benzoxazepin-3-yl]acetyl]piperidine-4-acetic acid], the “GGOH content in the soleus muscle” value in data set [4] (setting [6]) was determined as 0.224 ± 0.017 μg/g soleus muscle; in data set [4] (setting [7]), 0.255 ± 0.027 μg/g soleus muscle.

Take `COc1cccc([C@H]2O[C@H](CC(=O)Nc3cccc(CCC(=O)O)c3)C(=O)N(CC(C)(C)CO)c3ccc(Cl)cc32)c1OC` [Test compound 2, 3-[3-[[[(3R,5S)-7-chloro-5-(2,3-dimethoxyphenyl)-1-(3-hydroxy-2,2-dimethylpropyl)-2-oxo-1,2,3,5-tetrahydro-4,1-benzoxazepin-3-yl]acetyl]amino]phenyl]propionic acid]: the “GGOH content in the soleus muscle” value in data set [4] (setting [6]) came to 0.225 ± 0.019 μg/g soleus muscle; in data set [4] (setting [7]), 0.255 ± 0.006 μg/g soleus muscle. In addition, the “inhibitory activity against squalene synthase” value at squalene synthase is listed as “has inhibitory activity against squalene synthase”.

For the molecule `COc1cccc([C@H]2O[C@H](CC(=O)N3CCC(CC(=O)O)CC3)C(=O)N(CC(C)(C)CO)c3ccc(Cl)cc32)c1OC` [Test compound 3, N-[[(3R,5S)-7-chloro-5-(2,3-dimethoxyphenyl)-1-(3-hydroxy-2,2-dimethylpropyl)-2-oxo-1,2,3,5-tetrahydro-4,1-benzoxazepin-3-yl]acetyl]piperidine-4-acetic acid], the “The number … (% of Group 1)” value in data set [1] (Test compound 3 10 μM added at the same time as Atorvastatin 100 μM) is 42 ± 0.5 % of Group 1; in data set [1] (Test compound 3 10 μM alone (Treatment 2 vehicle), Mean ± SE (N = 3)), 96 ± 1.2 % of Group 1; in data set [2] (Test compound 3 10 μM for 1 day, medium removed, then Atorvastatin 10 μM 3 days) it was 76 ± 1.8 % of Group 1; in data set [2] (Test compound 3 10 μM for 1 day, medium removed, then Atorvastatin 100 μM 3 days), 45 ± 0.2 % of Group 1; in data set [2] (Test compound 3 10 μM for 1 day, medium removed, then vehicle 3 days, Mean ± SE (N = 3)), 98 ± 2.3 % of Group 1. In addition, the “inhibitory activity against squalene synthase” value at squalene synthase is given as “has inhibitory activity against squalene synthase”.

Values taken from patent publication US20060052362A1, “Skeletal muscle protecting agent” (priority 2003, published 2006).
